Results: the METLIN SMRT retention time set (Domingo-Almenara et al. 2019)

Assay: gradient 5% acetonitrile 3 min, to 50% in 2 min, to 85% in 15 min, held 3 min, 100 µL/min
Conditions: column: Zorbax Extend-C18 2.1 x 50 mm; eluents: water / acetonitrile, 0.1% formic acid
Outline: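 Mixtures of ~100 pure standards were chromatographed on a Zorbax Extend-C18 column (2.1 × 50 mm, 1.8 μm) at 100 μL/min using water and acetonitrile, each with 0.1% formic acid. Detection used a quadrupole time-of-flight mass spectrometer in positive and negative ionization mode, and data collection spanned 3 months. Retention time was obtained from adduct peaks picked computationally and each checked manually.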

CC(C)C(=O)NCc1nc(-c2ccccc2Cl)no1
RP-LC retention time: 754 s

O=C(CN1C(=O)C2CCCCN2c2ccc(S(=O)(=O)N3CCCC3)cc21)N1CCOCC1 (stereo unspecified)
RP-LC retention time: 750 s

Cc1onc(-c2ccccc2Cl)c1C(=O)NC1C(=O)N2C1SC(C)(C)C2C(=O)O (stereo unspecified)
RP-LC retention time: 815 s

CCC(=O)NCc1nc2c(n1C)CN(S(=O)(=O)c1ccc(F)c(C)c1)CC2
RP-LC retention time: 575 s

Nc1nc(=O)n(C2CS[C@H](CO)O2)cc1F (stereo partly specified)
RP-LC retention time: 571 s

O=C(CSc1nc2ccc([N+](=O)[O-])cc2s1)c1ccc(F)cc1
RP-LC retention time: 1030 s

Cc1ccc(-c2nc(Nc3cccc(C(F)(F)F)c3)sc2CC(=O)O)c(C)c1
RP-LC retention time: 1120 s

COc1ccc(Cl)cc1NC(=O)C(=O)NCC1(O)CCOCC1
RP-LC retention time: 706 s

Cc1ccc(NC(=O)C2CCN(S(=O)(=O)c3cc(C(=O)N4CCCC4)cs3)CC2)c(C)c1
RP-LC retention time: 831 s

CCOC(=O)N1CCC(NC(=O)C(=O)NCCC2=CCCCC2)CC1
RP-LC retention time: 842 s

CC(C)Cc1ccc(S(=O)(=O)N(C)CC2CCOCC2)cc1
RP-LC retention time: 1010 s

CCn1cc(C2=CCN(S(=O)(=O)c3ccc(F)cc3)CC2)c2cccnc21
RP-LC retention time: 1020 s

Cn1c(=O)c2ccn(CC(=O)NCc3cccc(Cl)c3)c2n(C)c1=O
RP-LC retention time: 703 s

COCCn1cc2c3c(cccc31)CN(C(=O)Nc1cc(F)cc(F)c1)CC2
RP-LC retention time: 963 s

COCc1nc2cccnc2n1C1CCN(C(=O)Nc2ccc(OC)cc2OC)CC1
RP-LC retention time: 638 s

CC(=O)c1cccc(OC(=O)c2cc3c(C)nn(-c4ccccc4)c3s2)c1
RP-LC retention time: 1310 s

COc1ccc(NC(=O)CN2CCc3[nH]c4c(C)c(Cl)ccc4c(=O)c3C2)c(OC)c1
RP-LC retention time: 656 s

COc1ccccc1NC(=O)N1CCC(n2c(C(F)(F)F)nc3cccnc32)CC1
RP-LC retention time: 898 s

CSc1cccc(NC(=O)CN2C(=O)CCn3nc(-c4cn(C)c5ccccc45)cc32)c1
RP-LC retention time: 902 s

CCN1CCN(C(=O)c2c(C)sc3ccn(CC(C)C)c(=O)c23)CC1
RP-LC retention time: 598 s

CCOc1ccccc1NC(=O)Cn1cnc2nc(N3CCCC(C(=O)NC4CC4)C3)sc2c1=O (stereo unspecified)
RP-LC retention time: 723 s

CSc1ccc(-c2noc(CN3C(=O)COc4ccc(C(C)(C)C)cc43)n2)cc1
RP-LC retention time: 1300 s

Cc1cccnc1NC(=O)c1c(O)c2cc(F)cc3c2n(c1=O)C(C)CC3 (stereo unspecified)
RP-LC retention time: 848 s

CCOC(=O)c1cn(-c2c(F)c(F)c(C#N)c(F)c2F)c2c(F)c(F)c(F)cc2c1=O
RP-LC retention time: 981 s

Cc1cc2[nH]c(C(=O)Nc3ccc(F)c(F)c3F)c(CN(C)C)c2s1
RP-LC retention time: 688 s

O=C(NC1CCCC1)c1cccn1Cc1noc(-c2ccccc2)n1
RP-LC retention time: 981 s

CC(=O)N1CCc2cc(S(=O)(=O)NCCn3nc(-c4cccs4)ccc3=O)ccc21
RP-LC retention time: 650 s

C[C@H]1CN(S(=O)(=O)c2ccccc2)C[C@@H]1c1nc(-c2ccncc2)no1
RP-LC retention time: 871 s

Cc1ccc(NC(=O)Cn2cnc3c(sc4nc(-c5ccccc5)ccc43)c2=O)c(F)c1
RP-LC retention time: 982 s

CCC(=O)Nc1c(C(=O)NC)oc2ccccc12
RP-LC retention time: 712 s

CCc1ccc(-c2cc3c(=O)n(CC(O)c4ccccc4OC)ccn3n2)cc1 (stereo unspecified)
RP-LC retention time: 790 s

CCN1CCCC1CN(CC(=O)N1CCNCC1)S(=O)(=O)c1cc(C)ccc1C (stereo unspecified)
RP-LC retention time: 581 s

O=C(NC1CC1)c1ccc(OCC2CCCN(C(=O)c3ccc(F)c(Cl)c3)C2)cc1 (stereo unspecified)
RP-LC retention time: 862 s

CC(C)CNC(=O)NC1CCN(c2nc3cccnc3n(Cc3ccccc3)c2=O)CC1
RP-LC retention time: 964 s

Nc1ncnc(Nc2ccccc2Cl)c1[N+](=O)[O-]
RP-LC retention time: 777 s

CCc1ccc(CNC(=O)c2cc3n(n2)CC(C)(C(=O)NCc2ccccc2)N(C)C3=O)cc1 (stereo unspecified)
RP-LC retention time: 832 s
